Earlier results as cited in paper PMC9762682, “Tocotrienols: Exciting Biological and Pharmacological Properties of Tocotrienols and Naturally Occurring Compounds, Part II” (Annals of clinical case reports, 2022).
Where two headings read alike, the source gives them in different places. Marks after values point to notes of the source that are not given here.

How the values were obtained:
Melanoma cells = tested on: Melanoma cells; parameters: method as in PMID 29606130
Prostate cancer cells = tested on: Prostate cancer cells; parameters: method as in PMID 29606130; value at effective dose: scale not given here;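 for IC50: anti-proliferation of cancer cells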
Hela cells = tested on: Hela cells; parameters: method as in PMID 29606130; value at effective dose: unit not given here;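 for IC50: anti-proliferation of cancer cells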
TNF-α [1] = settings: LPS-induced macrophages of PPAR-α knockout female mice
[2] = tested on: gene expression of TNF-α, IL-2, IL-4, IL-6, IL-8, IL-10; parameters: method as in earlier work; settings: 250 mg/d + AHA Step-1 diet; baseline = 100
[3] = parameters: method as in ref 14 = [14]; PMID 27493840; doi:10.4172/2155-9880.1000434; 14. Qureshi AA , Khan DA , Saleem S , Silswal N , Trias AM , Tan B , Pharmacokinetics and bioavailability of Annatto δ-tocotrienol in healthy fed subjects . J Clin Exp Cardiol . 2015; 6 : 11 . 10.417
[4] = parameters: method as in ref 16 = [16]; PMID 27493840; doi:10.4172/2155-9880.1000434; 16. Qureshi AA , Khan DA , Silswal N , Saleem S , Qureshi N . Evaluation of pharmacokinetics and bioavailability of higher doses of δ-tocotrienol in healthy fed humans . J Clin Exp Cardiol . 2016; 7
Liver cancer cells = tested on: Liver cancer cells; parameters: method as in PMID 29606130; value at effective dose: unit not given here
TNF-α [5] = settings: LPS-induced macrophages of wild type (C57BL/6) control group
[6] = tested on: cytokines, adiponectin, TGF-β1, leptin; parameters: method as in ref 14 = [14]; PMID 27493840; doi:10.4172/2155-9880.1000434; 14. Qureshi AA , Khan DA , Saleem S , Silswal N , Trias AM , Tan B , Pharmacokinetics and bioavailability of Annatto δ-tocotrienol in healthy fed subjects . J Clin Exp Cardiol . 2015; 6 : 11 . 10.417; settings: δ-tocotrienol treatment, pharmacokinetic study
[7] = plasma tocol after single 125 mg δ-tocotrienol dose, healthy fed subjects
[8] = plasma tocol after single 125 mg δ-tocotrienol dose, healthy fed subjects, listed as δ-tocotrienol
[9] = plasma tocol after single 250 mg δ-tocotrienol dose, healthy fed subjects
[10] = plasma tocol after single 250 mg δ-tocotrienol dose, healthy fed subjects, listed as δ-tocotrienol
[11] = plasma tocol after single 500 mg δ-tocotrienol dose, healthy fed subjects
[12] = plasma tocol after single 500 mg δ-tocotrienol dose, healthy fed subjects, listed as δ-tocotrienol
[13] = plasma tocol after single dose 750 mg δ-tocotrienol
[14] = plasma tocol after single dose 750 mg δ-tocotrienol, listed as δ-tocotrienol
[15] = plasma tocol after single dose 1000 mg δ-tocotrienol
[16] = plasma tocol after single dose 1000 mg δ-tocotrienol, listed as δ-tocotrienol

IC50 (Melanoma cells): 10 µM
percentage of control at IC50 dose (Melanoma cells): 50%
IC50 (Prostate cancer cells): 10 µM
percentage of control at IC50 dose (Prostate cancer cells): 39%
IC50 (Hela cells): 5 µM
percentage of control at IC50 dose (Hela cells): 45%
Time of clearance (Cl-T) ([3]; 125 mg/d Annatto δ-tocotrienol): 0.049 h⁻¹
Time of clearance (Cl-T) ([3]; 250 mg/d Annatto δ-tocotrienol): 0.045 h⁻¹
Time of clearance (Cl-T) ([3]; 500 mg/d Annatto δ-tocotrienol): 0.030 h⁻¹
time of appearance in the plasma ([3]; after δ-tocotrienol administration to well-fed subjects): > 2 h
Apparent volume of distribution (Vd/f) [3, 7]: 0.179 ± 0.035^a
Elimination of Half-life time (t1/2) [3, 7]: 1.74 ± 0.36^a h
Elimination rate constant (ke) [3, 7]: 0.381 ± 0.059^a h-1
Plasma Peak Concentration (Cmax) [3, 7]: 828.82 ± 24.28^a ng/mL
Time of clearance (Cl-T) [3, 7]: 0.049 ± 0.004^a I/h
Time to achieve plasma peak (Tmax) [3, 7]: 3.00 h
Area Under Curve-0 - 10 (AUC0-10) [3, 8]: 2460 ng·h/mL
Plasma Peak Concentration (Cmax) [3, 8]: 829 ng/mL
Apparent volume of distribution (Vd/f) [3, 9]: 0.114 ± 0.011^b
Elimination of Half-life time (t1/2) [3, 9]: 1.39 ± 0.22^a h
Elimination rate constant (ke) [3, 9]: 0.401 ± 0.039^b h-1
Plasma Peak Concentration (Cmax) [3, 9]: 1920.36 ± 57.99^b ng/mL
Time of clearance (Cl-T) [3, 9]: 0.045 ± 0.002^a I/h
Time to achieve plasma peak (Tmax) [3, 9]: 3.00 h
Area Under Curve-0 - 10 (AUC0-10) [3, 10]: 5410 ng·h/mL
Plasma Peak Concentration (Cmax) [3, 10]: 1920 ng/mL
Apparent volume of distribution (Vd/f) [3, 11]: 0.613 ± 0.102^c
Elimination of Half-life time (t1/2) [3, 11]: 2.54 ± 0.05^b h
Elimination rate constant (ke) [3, 11]: 0.050 ± 0.008^c h-1
Plasma Peak Concentration (Cmax) [3, 11]: 3278.00 ± 124.13^c ng/mL
Time of clearance (Cl-T) [3, 11]: 0.030 ± 0.001^b I/h
Area Under Curve-0 - 10 (AUC0-10) [3, 12]: 15000 ng·h/mL
Elimination rate constant (ke) [3, 12]: 0.265 h⁻¹
Time to achieve plasma peak (Tmax) [3, 12]: 6 h
bioavailability ([3]; when tocotrienols are supplemented in absence of tocopherols): better bioavailability
plasma tocol level ([4]; 0 Hr., single dose 750 mg δ-tocotrienol): 132 ± 12 ng/mL
plasma tocol level ([4]; 0 Hr., single dose 1000 mg δ-tocotrienol): 360 ± 20 ng/mL
Time of clearance (Cl-T) ([4]; 750 mg/d): 0.086 h⁻¹
Time of clearance (Cl-T) ([4]; 1000 mg/d): 0.078 h⁻¹
plasma tocol level ([4]; 1 hr., single dose 750 mg δ-tocotrienol): 310 ± 28 ng/mL
plasma tocol level ([4]; 1 hr., single dose 1000 mg δ-tocotrienol): 993 ± 33 ng/mL
plasma tocol level ([4]; 2 hr., single dose 750 mg δ-tocotrienol): 877 ± 24 ng/mL
plasma tocol level ([4]; 2 hr., single dose 1000 mg δ-tocotrienol): 1593 ± 44 ng/mL
plasma tocol level ([4]; 4 hr., single dose 750 mg δ-tocotrienol): 1444 ± 53 ng/mL
plasma tocol level ([4]; 4 hr., single dose 1000 mg δ-tocotrienol): 884 ± 45 ng/mL
plasma tocol level ([4]; 6 hr., single dose 750 mg δ-tocotrienol): 759 ± 30 ng/mL
plasma tocol level ([4]; 6 hr., single dose 1000 mg δ-tocotrienol): 562 ± 47 ng/mL
plasma tocol level ([4]; 8 hr., single dose 750 mg δ-tocotrienol): 523 ± 13 ng/mL
Area Under the Curve-t0 - t8 (AUC0-8) [4, 13]: 6620.87 ± 49.67^a ^* ng/ml
Area Under the Curve-t0 - ∞ (AUC0-∞) [4, 13]: 8687.69 ± 201.01^a ^* ng/ml
Elimination of Half-life time (t1/2) [4, 13]: 2.74 ± 0.13^a h
Elimination rate constant (ke) [4, 13]: 0.253 ± 0.167^a h-1
Peak Plasma Concentration (Cmax) [4, 13]: 1444.23 ± 53.07^a ng/ml
Time of clearance (Cl-T) [4, 13]: 0.086 ± 0.002^a I/h
Time to achieve plasma peak (Tmax) [4, 13]: 4.00^a h
Area Under the Curve-t0 - t8 (AUC0-8) [4, 14]: 6620 ng·h/mL
Area Under the Curve-t0 - ∞ (AUC0-∞) [4, 14]: 8690 ng·h/mL
Elimination rate constant (ke) [4, 14]: 0.25 h⁻¹
Peak Plasma Concentration (Cmax) [4, 14]: 1444 ng/mL
Area Under the Curve-t0 - t8 (AUC0-8) [4, 15]: 7450.10 ± 89.01^a ^* ng/ml
Area Under the Curve-t0 - ∞ (AUC0-∞) [4, 15]: 9633.18 ± 382.98^a ^* ng/ml
Elimination of Half-life time (t1/2) [4, 15]: 2.68 ± 0.29^a h
Elimination rate constant (ke) [4, 15]: 0.260 ± 0.143^a h-1
Peak Plasma Concentration (Cmax) [4, 15]: 1591.89 ± 43.97^a ng/ml
Time of clearance (Cl-T) [4, 15]: 0.078 ± 0.003^a I/h
Time to achieve plasma peak (Tmax) [4, 15]: 4.00^a h
Area Under the Curve-t0 - t8 (AUC0-8) [4, 16]: 7450 ng·h/mL
Area Under the Curve-t0 - ∞ (AUC0-∞) [4, 16]: 9630 ng·h/mL
Peak Plasma Concentration (Cmax) [4, 16]: 1592 ng/mL
Total tocols (sum of 0-8 h) ([4]; single dose 750 mg δ-tocotrienol): 4045 ng/mL
IC50 (Liver cancer cells): 20 µM
percentage of control at IC50 dose (Liver cancer cells): 53%
Structure (SMILES): CC(C)=CCC/C(C)=C/CC/C(C)=C/CC[C@]1(C)CCc2cc(O)cc(C)c2O1 [δ-Tocotrienol]
effective dose (Melanoma cells): 20 µM
percentage of control at effective dose (Melanoma cells): 37%
effective dose (Prostate cancer cells; 48 h): 20 µM
percentage of control at effective dose (Prostate cancer cells; 48 h): 35%
value at effective dose (Prostate cancer cells; 48 h): 12.3 ± 1.5
effective dose (Hela cells; 48 h): 20 µM
percentage of control at effective dose (Hela cells; 48 h): 18%
value at effective dose (Hela cells; 48 h): 8.3 ± 2.1
effect on secretion of TNF-α (TNF-α [1]): activation
Gene Expression IL-2 [2]: 91.5 ± 3.54
Gene Expression IL-4 [2]: 77.5 ± 2.12
Gene Expression IL-6 [2]: 73.5 ± 0.71
Gene Expression IL-8 [2]: 92.0 ± 2.83
Gene Expression IL-10 [2]: 89.0 ± 1.41
Gene Expression TNF-α [2]: 84.5 ± 0.71^a, ^**
effective dose (Liver cancer cells; 48 h): 20 µM
percentage of control at effective dose (Liver cancer cells; 48 h): 24%
value at effective dose (Liver cancer cells; 48 h): 17.7 ± 2.1
effect on secretion of TNF-α (TNF-α [5]): inhibition
adiponectin, TGF-β1, and leptin [6]: up-regulation
eight cytokines [6]: down-regulation
